Literature values, collected in patent US20150104511A1, “Pharmaceutical Antiretroviral Combinations Comprising Lamivudine, Festinavir and Nevirapine” (Cipla Limited, priority 2012, published 2015).

Tests used:
[1] = biological target: RT (Reverse Transcriptase) (Human immunodeficiency virus type 1 group M subtype B, UniProt P04585); settings: compared to d4T-triphosphate
mtDNA pol γ = biological target: T1, mtDNA pol γ (Homo sapiens, UniProt P54098); settings: compared to d4T-triphosphate
T1 sequence (P54098 1-1239): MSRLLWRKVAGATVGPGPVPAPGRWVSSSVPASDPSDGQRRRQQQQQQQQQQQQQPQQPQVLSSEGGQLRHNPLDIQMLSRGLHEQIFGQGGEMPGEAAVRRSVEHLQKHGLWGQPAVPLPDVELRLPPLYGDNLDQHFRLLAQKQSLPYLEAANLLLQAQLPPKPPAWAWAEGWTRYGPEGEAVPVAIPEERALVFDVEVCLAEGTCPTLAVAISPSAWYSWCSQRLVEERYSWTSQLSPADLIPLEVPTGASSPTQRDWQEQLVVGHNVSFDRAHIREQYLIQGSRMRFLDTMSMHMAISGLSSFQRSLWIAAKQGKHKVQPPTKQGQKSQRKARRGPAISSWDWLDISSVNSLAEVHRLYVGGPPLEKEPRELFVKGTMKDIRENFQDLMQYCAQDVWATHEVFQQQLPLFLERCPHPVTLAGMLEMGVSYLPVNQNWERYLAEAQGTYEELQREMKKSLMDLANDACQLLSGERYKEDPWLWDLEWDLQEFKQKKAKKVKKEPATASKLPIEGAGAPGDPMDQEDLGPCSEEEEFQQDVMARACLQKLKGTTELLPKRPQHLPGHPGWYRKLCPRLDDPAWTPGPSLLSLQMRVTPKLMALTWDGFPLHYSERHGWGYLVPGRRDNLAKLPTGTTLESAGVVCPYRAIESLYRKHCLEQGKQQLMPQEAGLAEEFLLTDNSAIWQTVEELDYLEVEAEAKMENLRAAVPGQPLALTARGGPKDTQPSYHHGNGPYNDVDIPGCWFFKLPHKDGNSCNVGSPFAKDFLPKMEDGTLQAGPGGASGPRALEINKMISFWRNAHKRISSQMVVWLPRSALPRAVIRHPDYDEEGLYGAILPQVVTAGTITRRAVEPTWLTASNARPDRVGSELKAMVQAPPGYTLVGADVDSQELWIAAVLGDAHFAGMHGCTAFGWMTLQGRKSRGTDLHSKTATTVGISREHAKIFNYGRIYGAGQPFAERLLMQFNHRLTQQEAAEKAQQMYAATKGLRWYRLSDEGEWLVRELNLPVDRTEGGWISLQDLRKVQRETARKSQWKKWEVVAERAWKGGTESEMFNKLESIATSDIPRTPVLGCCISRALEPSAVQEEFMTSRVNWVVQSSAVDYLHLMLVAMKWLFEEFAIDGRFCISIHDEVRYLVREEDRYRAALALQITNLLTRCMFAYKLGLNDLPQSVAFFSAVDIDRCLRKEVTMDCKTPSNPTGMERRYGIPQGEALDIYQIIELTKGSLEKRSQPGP

## C#C[C@@]1(CO)C=C[C@H](n2cc(C)c(=O)[nH]c2=O)O1 [Festinavir, 2′,3′-didehydro-3′-deoxy-4′-ethynylthymidine]
HIV; compared with the other thymidine analogs
  persistence of anti-HIV activity after drug removal: more persistent anti-HIV activity after drug removal
HIV; relative to stavudine (d4T)
  improved potency as compared to stavudine (d4T): 5-10 fold
mtDNA; as compared to stavudine (d4T)
  in vitro toxicity, including effects on mtDNA: reduced in vitro toxicity
mtDNA; compared with stavudine (d4T)
  cellular and mitochondrial toxicity: lower cellular and mitochondrial toxicity

## C#C[C@@]1(COP(=O)(O)OP(=O)(O)OP(=O)(O)O)C=C[C@H](n2cc(C)c(=O)[nH]c2=O)O1 [4′-Ed4T triphosphate]
[1]
  increase in affinity to RT (Reverse Transcriptase): approximately 5 fold
mtDNA pol γ
  interactions with mtDNA pol γ: reduces the interactions with mtDNA pol γ
